Laboratory results taken from patent US8603527B2, “Pharmaceutical formulations of a substituted diaminopurine” (Signal Pharmaceuticals, LLC, priority 2010, dated 2013).

Assay: clinical
Conditions: human, in vivo, 100 mg; for AUC(0-t): AUC0-t; for Vd/F: Vz/F
Excerpt: Methods: This was an open-label study conducted at a single study center in conformance with good clinical practice (GCP). Thirty-six eligible healthy male and female subjects were enrolled and distributed into 3 groups as follows:
Group 1—A total of 12 females between 18 to 55 years of age, inclusive (±5 years age-matched and ±10% weight-matched to subjects in Group 2).
Group 2—A total of 12 males between 18 to 55 years of age, inclusive (±5 years age-matched and ±10% weight-matched to subjects in Group 1).
Group 3—A total of 12 males and females between 65 and 85 years of age, inclusive (weight and gender-matched to subjects in Groups 1 and 2), with a minimum of 3 subjects of each gender. Seven of the subjects in Group 3 were age 70 or above, with 2 of those subjects being >75 years of age.
Group 1 (Healthy Females) and Group 3 (Elderly Males and Females): Subjects were screened within 21 days of dosing and eligible subjects were admitted to the study center on Day −1 (i.e., at least 12 hours predose) for baseline assessments and confirmation of eligibility. A single oral dose of 100 mg Compound I was administered on Day 1 following an overnight fast of at least 8 hours. Subjects were discharged from the study center the morning of Day 3 upon completion of study procedures and returned to the study center for PK blood draws and safety assessments on Days 4, 5, and 6. The end-of-study (EOS) evaluation also occurred on Day 6. Subjects returned to the study center for a follow-up visit between 7 and 10 days from EOS. Serial blood samples were collected predose and up to 120 hours postdose for the determination of plasma Compound I concentrations. Safety was monitored throughout the study; safety evaluations included AE reporting, physical examinations, vital sign measurements, ECGs, and clinical laboratory safety tests. All AEs and concomitant medications were assessed and recorded throughout the study from the time the ICF was signed through follow-up.
Group 2 (Healthy Males): Subjects in Group 2 participated in this portion of the study to evaluate food effect using a randomized, open-label, single dose, 2-period (Period 1 and Period 2), 2-sequence, 2-way crossover design. Subjects were screened within 21 days of dosing and eligible subjects were admitted to the study center on Day −1 (i.e., at least 12 hours predose) for baseline assessments and confirmation of eligibility. On Day 1 of Period 1, following an overnight fast of at least 8 hours, subjects were randomized to receive 100 mg Compound I either with or without food (6 subjects received Compound I with food and 6 subjects received Compound I without food) according to a random code. Subjects were discharged from the study center the morning of Day 3 upon completion of study procedures and returned to the study center for PK blood draws and safety assessments on Days 4, 5, and 6.
Following an interdose interval of 10 to 15 days (i.e., at least 10 days and no more than 15 days from the dosing day (Day 1) of Period 1 to Day 1 of Period 2), subjects were re-admitted to the study center on Day −1 of Period 2 (i.e., at least 12 hours predose) for baseline assessments and reconfirmation of eligibility. On Day 1 of Period 2, assigned treatment was switched. Subjects who received Compound I with food in Period 1 received Compound I without food in Period 2 and subjects who received Compound I without food in Period 1 received Compound I with food in Period 2. Subjects were discharged from the study center the morning of Day 3 upon completion of study procedures and returned to the study center for PK blood draws and safety assessments on Days 4, 5, and 6. Day 6 of Period 2 also served as the EOS evaluation. Subjects returned to the study center for a follow-up visit between 7 and 10 days from EOS. In each study period, serial blood samples were collected predose and up to 120 hours postdose for the determination of plasma Compound I concentrations. […]

Structure (SMILES): O[C@H]1CC[C@H](Nc2ncc3nc(Nc4c(F)cc(F)cc4F)n([C@H]4CCOC4)c3n2)CC1 [Compound I, 4-((9-((3S)-tetrahydro-3-furanyl)-8-((2,4,6-trifluorophenyl)amino)-9H-purin-2-yl)amino)-trans-cyclohexanol]
- AUC(0-t) (both sexes, po, Geometric Mean): 13500 ng·h/mL
- AUC(0-t) (both sexes, po, Geometric Means): 13500 ng·h/mL
- AUC(0-inf) (both sexes, po, AUC0-∞ (geometric mean)): 14400 ng·h/mL
- AUC(0-inf) (both sexes, po, AUC0-∞, Geometric Mean): 14400 ng·h/mL
- AUC(0-inf) (both sexes, po, AUC0-∞, Geometric Means): 14300 ng·h/mL
- AUC (both sexes, po, AUCO-inf): 14800 ng·h/mL
- AUC (both sexes, po, AUCO-t): 14200 ng·h/mL
- Cmax (both sexes, po, Cmax): 742 ng/mL
- Cmax (both sexes, po, Cmax (geometric mean)): 649 ng/mL
- Cmax (both sexes, po, Cmax, Geometric Mean): 602 ng/mL
- Cmax (both sexes, po, Cmax, Geometric Means): 654 ng/mL
- half-life (both sexes, po, T1/2): 24.5 h
- Tmax (both sexes, po, Tmax): 1.97 h
- Tmax (both sexes, po, Tmax, Median): 2 h
- Vd/F (both sexes, po): 250 L
- half-life (both sexes, po, mean t1/2): 23 to 34 h
- Tmax (both sexes, po, median Tmax): 1 to 2 h
- half-life (both sexes, po, t1/2, Geometric Mean): 27.9 h
- 90% CI for the ratio (elderly/young) of geometric means, AUC0-t (both): 86.7, 119.1
- 90% CI for the ratio (elderly/young) of geometric means, AUC0-∞ (both): 84.0, 117.3
- 90% CI for the ratio (elderly/young) of geometric means, Cmax (both): 82.0, 143.8
- 90% CI for the ratio (female/male) of geometric means, AUC0-t (both): 81.7, 112.1
- 90% CI for the ratio (female/male) of geometric means, AUC0-∞ (both): 79.7, 111.4
- 90% CI for the ratio (female/male) of geometric means, Cmax (both): 72.3, 126.7
- AUC0-t, Geometric Mean (both, po): 13679.40 ng·h/mL
- AUC0-t, Geometric Means (both, po): 13722.1 ng·h/mL
- AUC0-∞ (geometric mean) (both, po): 14239.14 ng·h/mL
- AUC0-∞, Geometric Mean (both, po): 14239.14 ng·h/mL
- AUC0-∞, Geometric Means (both, po): 14398.3 ng·h/mL
- Cmax, Geometric Means (both, po): 602.0 ng/mL
- Tmax, Median (both, po): 1.75 h
- median Tmax (both, po): approximately 1.5 hours
- t1/2, Geometric Mean (both, po): 23.61 h
- AUC(0-t) (female, po, Geometric Mean): 13100 ng·h/mL
- AUC(0-t) (female, po, Geometric Means): 13300 ng·h/mL
- AUC(0-inf) (female, po, AUC0-∞): 13700 ng·h/mL
- AUC(0-inf) (female, po, AUC0-∞, Geometric Mean): 13700 ng·h/mL
- AUC(0-inf) (female, po, AUC0-∞, Geometric Means): 13900 ng·h/mL
- AUC (female, po, AUCO-inf): 13300 ng·h/mL
- AUC (female, po, AUCO-t): 12700 ng·h/mL
- Cmax (female, po, Cmax): 587 ng/mL
- Cmax (female, po, Cmax, Geometric Mean): 587 ng/mL
- Cmax (female, po, Cmax, Geometric Means): 614 ng/mL
- half-life (female, po, T1/2): 24.4 h
- Tmax (female, po, Tmax): 2.19 h
- Tmax (female, po, Tmax, Median): 2.06 h
- Vd/F (female, po): 265 L
- Tmax (female, po, median Tmax): 2 h
- half-life (female, po, t1/2, Geometric Mean): 24.6 h
- 90% CI of the median difference (elderly-young), Tmax: −0.5, 0.5
- 90% CI of the median difference (fed-fast), Tmax: 2.00, 3.00
- 90% CI of the median difference (female-male), Tmax: 0.00, 1.00
- 90% CI for the ratio (fed/fast) of geometric means, AUC0-t (male): 97.3, 108.1
- 90% CI for the ratio (fed/fast) of geometric means, AUC0-∞ (male): 98.5, 109.4
- 90% CI for the ratio (fed/fast) of geometric means, Cmax (male): 71.6, 105.3
- Tmax (male): 1.00 h
- AUC(0-t) (male): 14400 ng·h/mL
- AUC(0-inf) (male, AUC0-∞): 15600 ng·h/mL
- Cmax (male, Cmax): 658 ng/mL
- half-life (male, t1/2): 32 h
- median Tmax (male, po): 1 h
- AUC(0-t) (male, po, Geometric Mean): 14000 ng·h/mL
- AUC(0-inf) (male, po, AUC0-∞): 15000 ng·h/mL
- AUC(0-inf) (male, po, AUC0-∞ (geometric mean)): 16200 ng·h/mL
- AUC(0-inf) (male, po, AUC0-∞, Geometric Mean): 15000 ng·h/mL
- AUC (male, po, AUCO-inf): 16000 ng·h/mL
- AUC (male, po, AUCO-t): 14700 ng·h/mL
- Cmax (male, po, Cmax): 646 ng/mL
- Cmax (male, po, Cmax (geometric mean)): 572 ng/mL
- Cmax (male, po, Cmax, Geometric Mean): 646 ng/mL
- half-life (male, po, T1/2): 33 h
- Vd/F (male, po): 308 L
- half-life (male, po, t1/2, Geometric Mean): 28.1 h
